Data: patent US20200039930A1, “PROLINE AMIDE COMPOUNDS AND THEIR AZETIDINE ANALOGUES CARRYING A SPECIFICALLY SUBSTITUTED BENZYL RADICAL” (AbbVie Deutschland GmbH & Co. KG, priority 2017, published 2020)

Legend:
[1] = Metabolic stability: unbound intrinsic clearance in liver microsomes; format: in vitro ADME; settings: rat; liver microsomes 0.25 mg protein/mL, 0.5 μM compound, pH 7.4, 37° C.; Cl int unbound=Cl int/fu mic; compounds used as acid addition salts; read-out: Cl int, mic unb. (r) (unbound intrinsic clearance)
Experimental: Samples of the tested compounds (0.5 μM) were preincubated together with rat liver microsomes (0.25 mg of microsomal protein/mL) in 0.05 M potassium phosphate buffer of pH 7.4 in microtiter plates at 37° C. for 5 minutes. The reaction was started by adding NADPH (1.0 mM). After 0, 5, 10, 15, 20 and 30 minutes, an aliquot was removed, the reaction was cooled and stopped by adding twice the amount of quench solution consisting of acetonitrile/methanol 1:1, and containing […] carbutamide as internal standard. The samples were frozen until analyzed. The remaining concentration of undegraded test substance was determined by liquid chromatography-tandem mass spectrometry (LC-MS/MS). The half-life (t1/2) was determined from the gradient of the ratio of the signal of (test substance/internal standard)/unit time plot, allowing the calculation of the half-life of the test substance, assuming first order kinetics, from the decrease in the concentration of the compound with time. The microsomal clearance (mClint) was calculated as follows: mClint=((ln(2)/t 1/2)/Microsomal Protein Concentration (mg/ml))*1000, leading to the unit of uL/min/mg. The scaled clearance (mClin_scaled) was calculated as mCLint_scaled=m CLint*(Microsomal Yield (mg/kg BW))/1000000*60, leading to the units L/h/kg. The Microsomal Yield is defined by the specifics of the used microsomes. Calculations were modified from refer-ences: Di, The Society for Biomolecular Screening, 2003, 453-462; Obach, D M D, 1999 vol 27. N 11, 1350-1359.
A suspension of 0.25 mg/ml microsomal protein spiked with 0.5 μM of test compound was pipetted on one side of a HTDialysis device (HTDialysis LLC,37 Ledgewood Drive, Gales Fery Conn. 06335) separated by a membrane with a MWcut off 12-14 K. 50 mM K-Phosphate buffer (pH 7.4) was added on the other side of the well. After incubation at 37° C. for 4 h while shaking at 150 rpm, aliquots of both sides were taken, quenched with MeOH/ACN 1:1 and 0.2 μM of internal standard and frozen until analy-sis by LCMSMS.
Cl int unbound=Cl int/fu mic
The compounds were used in form of their respective acid addition salts.

[2] = target: T1, 5-HT2C receptor (Homo sapiens, UniProt P28335); experiment: Human 5-HT2C functional assay (beta-arrestin2 recruitment, U2OS_HTR2C_β-Arrestin cells); format: cell-based; settings: compounds used as acid addition salts; for EC50: U2OS_HTR2C_β-Arrestin cells, 1.5 h incubation, read-out: EC50 5-HT2C (potency in functional assay); for Emax: relative efficacy vs response to 10 µM 5-HT or maximal effect of 5-HT (100%)
T1 construct: host or cells: U2OS
T1 sequence (P28335 33-458): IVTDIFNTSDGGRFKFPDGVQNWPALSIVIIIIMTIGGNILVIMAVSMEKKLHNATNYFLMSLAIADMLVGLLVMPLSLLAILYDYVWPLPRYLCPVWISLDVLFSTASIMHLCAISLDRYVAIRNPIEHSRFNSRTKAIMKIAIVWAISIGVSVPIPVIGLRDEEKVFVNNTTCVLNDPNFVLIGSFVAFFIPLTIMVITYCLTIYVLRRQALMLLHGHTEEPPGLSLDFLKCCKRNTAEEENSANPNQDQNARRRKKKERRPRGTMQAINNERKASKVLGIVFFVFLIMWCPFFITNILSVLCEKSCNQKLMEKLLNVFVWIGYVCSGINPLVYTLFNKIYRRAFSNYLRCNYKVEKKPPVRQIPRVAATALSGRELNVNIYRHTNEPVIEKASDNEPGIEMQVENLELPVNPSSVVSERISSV
T1 sequence (P32121 whole entry partner): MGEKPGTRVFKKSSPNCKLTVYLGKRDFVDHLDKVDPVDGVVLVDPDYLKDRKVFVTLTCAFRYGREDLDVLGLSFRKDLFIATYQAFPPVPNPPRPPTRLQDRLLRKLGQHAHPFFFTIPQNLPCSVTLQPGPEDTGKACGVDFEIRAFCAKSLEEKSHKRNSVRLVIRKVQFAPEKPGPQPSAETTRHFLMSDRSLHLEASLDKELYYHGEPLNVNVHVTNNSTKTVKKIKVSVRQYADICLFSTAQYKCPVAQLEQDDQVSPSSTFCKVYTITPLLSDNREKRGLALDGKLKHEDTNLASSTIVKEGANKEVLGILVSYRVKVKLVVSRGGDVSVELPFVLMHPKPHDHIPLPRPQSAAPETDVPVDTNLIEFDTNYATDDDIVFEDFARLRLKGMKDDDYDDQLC
Experimental: The functional activity of compounds of formula I was assayed by incubation with U2OS_HTR2C_β-Arrestin cells (DiscoverX, 93-0289C3) to induce beta-arrestin2 recruitment to the 5-HT2C receptor. The agonist-induced recruitment and proximity of the receptor and beta-arrestin2 leads to complementation and formation of active β-galactosidase. The enzyme complementation results in enzyme activity, which is measured following the termination of the agonist incubation using DiscoveRx's detection reagent, which contains a chemiluminescent substrate which produces a high intensity signal. Cells were plated and a medium-change to a 1% serum containing medium was performed 24 h later. The next day, test compounds were added and incubated for 1.5 h before addition of detection reagent.
The response produced was measured and compared with the response produced by 10 [mu]M 5-HT or the maximal effect induced by 5-HT (defined as 100%) to which it was expressed as a percentage response (relative efficacy). Dose response curves were con-structed using Graphpad Prism (Graph Software Inc.) or using in house adapted software using a 4 parameter dose response model with variable slope (fit=(Bottom+(Top−Bottom)/(1+10^((LogEC50−x)*Hill Slope))res=(y−fit)). Results are compiled in the table below.

Row | CLint scaled at 0.5 μM [1] [mL/min/kg] | EC50 [2] [nM] | Emax [2] [%] | Compound
1 | 1330 to 4170 | < 5 | > 70 | COc1cc(OCc2cccc(F)c2)c(F)cc1CNC(=O)[C@@H]1CCCN1 [Example 1, (2S)—N-[[5-Fluoro-4-[(3-fluorophenyl)methoxy]-2-methoxy-phenyl]methyl]-pyrrolidine-2-carboxamide]
2 | 1330 to 4170 | 5 to 15 | > 70 | COc1cc(OCc2cc(F)cc(F)c2F)c(F)cc1CNC(=O)[C@@H]1CCCN1 [Example 2, (2S)—N-[[5-Fluoro-2-methoxy-4-[(2,3,5-trifluorophenyl)methoxy]phenyl]methyl]-pyrrolidine-2-carboxamide]
3 | 1330 to 4170 | < 5 | > 70 | COc1cc(OCc2ccc(F)cc2)c(F)cc1CNC(=O)[C@@H]1CCCN1 [Example 3, (2S)—N-[[5-Fluoro-4-[(4-fluorophenyl)methoxy]-2-methoxy-phenyl]methyl]-pyrrolidine-2-carboxamide]
4 | 1330 to 4170 | 5 to 15 | > 70 | COc1cc(OCc2cccc(F)c2F)c(F)cc1CNC(=O)[C@@H]1CCCN1 [Example 4, (2S)—N-[[4-[(2,3-Difluorophenyl)methoxy]-5-fluoro-2-methoxy-phenyl]methyl]-pyrrolidine-2-carboxamide]
5 | 1330 to 4170 | < 5 | > 70 | COc1cc(OCc2cc(F)cc(F)c2)c(F)cc1CNC(=O)[C@@H]1CCCN1 [Example 5, (2S)—N-[[4-[(3,5-Difluorophenyl)methoxy]-5-fluoro-2-methoxy-phenyl]methyl]-pyrrolidine-2-carboxamide]
6 | 1330 to 4170 | 15 to 30 | > 70 | COc1cc(OCc2ccccc2F)c(F)cc1CNC(=O)[C@@H]1CCCN1 [Example 6, (2S)—N-[[5-Fluoro-4-[(2-fluorophenyl)methoxy]-2-methoxy-phenyl]methyl]-pyrrolidine-2-carboxamide]
7 | 1330 to 4170 | 15 to 30 | > 70 | COc1cc(OCc2c(F)ccc(F)c2Cl)c(F)cc1CNC(=O)[C@@H]1CCCN1 [Example 7, (2S)—N-[[4-[(2-Chloro-3,6-difluoro-phenyl)methoxy]-5-fluoro-2-methoxy-phenyl]-methyl]pyrrolidine-2-carboxamide]
8 | < 500 | 15 to 30 | > 70 | COc1cc(OCc2ccnc(F)c2)c(F)cc1CNC(=O)[C@@H]1CCCN1 [Example 8, (2S)—N-[[5-fluoro-4-[(2-fluoro-4-pyridyl)methoxy]-2-methoxy-phenyl]methyl]-pyrrolidine-2-carboxamide]
9 | 500 to 1330 | 15 to 30 | > 70 | COc1cc(OCc2cncc(F)c2)c(F)cc1CNC(=O)[C@@H]1CCCN1 [Example 9, (2S)—N-[[5-Fluoro-4-[(5-fluoro-3-pyridyl)methoxy]-2-methoxy-phenyl]methyl]-pyrrolidine-2-carboxamide]
10 | 500 to 1330 | 15 to 30 | > 70 | COc1cc(OCc2ccc(C(F)(F)F)nc2)c(F)cc1CNC(=O)[C@@H]1CCCN1 [Example 10, (2S)—N-[[5-fluoro-2-methoxy-4-[[6-(trifluoromethyl)-3-pyridyl]methoxy]phenyl]-methyl]pyrrolidine-2-carboxamide]
11 | 1330 to 4170 | 5 to 15 | > 70 | COc1cc(OCCc2ccc(F)cc2)c(F)cc1CNC(=O)[C@@H]1CCCN1 [Example 11, (2S)—N-[[5-Fluoro-4-[2-(4-fluorophenyl)ethoxy]-2-methoxy-phenyl]methyl]-pyrrolidine-2-carboxamide]
12 | 1330 to 4170 | 5 to 15 | > 70 | COc1cc(OCCc2cccc(F)c2)c(F)cc1CNC(=O)[C@@H]1CCCN1 [Example 12, (2S)—N-[[5-Fluoro-4-[2-(3-fluorophenyl)ethoxy]-2-methoxy-phenyl]methyl]-pyrrolidine-2-carboxamide]
13 | 1330 to 4170 | < 5 | > 70 | COc1cc(OCCc2ccccc2F)c(F)cc1CNC(=O)[C@@H]1CCCN1 [Example 13, (2S)—N-[[5-Fluoro-4-[2-(2-fluorophenyl)ethoxy]-2-methoxy-phenyl]methyl]-pyrrolidine-2-carboxamide]
14 | 1330 to 4170 | 5 to 15 | > 70 | COc1cc(OCCc2ccc(C(F)(F)F)cc2)c(F)cc1CNC(=O)[C@@H]1CCCN1 [Example 14, (2S)—N-[[5-Fluoro-2-methoxy-4-[2-[4-(trifluoromethyl)phenyl]ethoxy]phenyl]-methyl]pyrrolidine-2-carboxamide]
15 | 1330 to 4170 | 5 to 15 | > 70 | COc1cc(OCc2ccc(C(F)(F)F)o2)c(F)cc1CNC(=O)[C@@H]1CCCN1 [Example 15, (2S)—N-[[5-fluoro-2-methoxy-4-[[5-(trifluoromethyl)-2-furyl]methoxy]phenyl]-methyl]pyrrolidine-2-carboxamide]
16 | < 500 | 15 to 30 | > 70 | COc1cc(O[C@H]2CC[C@@H](F)CC2)c(F)cc1CNC(=O)[C@@H]1CCCN1 [Example 16, (S)—N-(5-Fluoro-4-((cis-4-fluorocyclohexyl)oxy)-2-methoxybenzyl)pyrrolidine-2-carboxamide]
17 | < 500 | 5 to 15 | > 70 | COc1cc(O[C@H]2CC[C@H](F)CC2)c(F)cc1CNC(=O)[C@@H]1CCCN1 [Example 17, (S)—N-(5-Fluoro-4-((trans-4-fluorocyclohexyl)oxy)-2-methoxybenzyl)pyrrolidine-2-carboxamide]
18 | < 500 | 5 to 15 | > 70 | COc1cc(OC2CCC(F)(F)CC2)c(F)cc1CNC(=O)[C@@H]1CCCN1 [Example 18, (2S)—N-[[4-(4,4-Difluorocyclohexoxy)-5-fluoro-2-methoxy-phenyl]methyl]-pyrrolidine-2-carboxamide]
19 | < 500 | 15 to 30 | > 70 | COc1cc(OCCC(F)(F)F)c(F)cc1CNC(=O)[C@@H]1CCCN1 [Example 19, (2S)—N-[[5-Fluoro-2-methoxy-4-(3,3,3-trifluoropropoxy)phenyl]methyl]pyrrolidine-2-carboxamide]
20 | < 500 | < 5 | > 70 | COc1cc(OCC(F)(F)C(F)F)c(F)cc1CNC(=O)[C@@H]1CCCN1 [Example 20, (2S)—N-[[5-Fluoro-2-methoxy-4-(2,2,3,3-tetrafluoropropoxy)phenyl]methyl]-pyrrolidine-2-carboxamide]
21 | < 500 | 5 to 15 | > 70 | COc1cc(OC(C)C(F)(F)C(F)F)c(F)cc1CNC(=O)[C@@H]1CCCN1 (stereo partly drawn) [Example 22, (2S)—N-[[5-Fluoro-2-methoxy-4-(2,2,3,3-tetrafluoro-1-methyl-propoxy)phenyl]-methyl]pyrrolidine-2-carboxamide]

Row | Compound | CLint scaled at 0.5 μM [1] [mL/min/kg] | EC50 [2] [nM] | Emax [2] [%]
22 | COc1cc(OCC(F)(F)C(F)C(F)(F)F)c(F)cc1CNC(=O)[C@@H]1CCCN1 (stereo partly drawn) [Example 21, (2S)—N-[[5-Fluoro-4-(2,2,3,4,4,4-hexafluorobutoxy)-2-methoxy-phenyl]methyl]-pyrrolidine-2-carboxamide] | < 500 | < 5 | > 70
23 | COc1cc(OCCCC(F)(F)F)c(F)cc1CNC(=O)[C@@H]1CCCN1 [Example 23, (2S)—N-[[5-Fluoro-2-methoxy-4-(4,4,4-trifluorobutoxy)phenyl]methyl]pyrrolidine-2-carboxamide] | < 500 | < 5 | > 70
